Patent US20250250287A1, “HETEROCYCLIC COMPOUNDS, COMPOSITIONS THEREOF, AND METHODS OF TREATMENT THEREWITH” (BeiGene Switzerland GmbH, priority 2022, published 2025)

test system: pERK1/2(THR202/TYR204) level in SW620 cell line (KRAS G12V); assay: KRAS G12V pERK assay (HTRF) in SW620 cell line; format: cell-based; conditions: Homo sapiens, SW-620, 2 h, SW620 cells, 2 hrs compound treatment
Procedure: (§1) SW620 cell line was used in this study. Cells were maintained in RPMI 1640 supplemented with 10% fetal bovine serum (Thermo Fisher), 50 units/mL penicillin and streptomycin (Thermo Fisher) and kept at 37° C. in a humidified atmosphere of 5% CO2 in air. Cells were reinstated from frozen stocks that were laid down within 30 passages from the original cells purchased. 40000 cells per well were seeded into a 96-well plate and incubated overnight. Cells were treated with a 10-point dilution series. The final compound concentration is from 0 to 10 μM. After 2 hrs compound treatment, cells were lysed, and the pERK1/2(THR202/TYR204) level in the cell lysates was detected by HTRF kit (Cisbio). In brief, a total of 16 μL of cell lysate from each well of a 96-well plate was transferred to a 384-well white assay plate. Lysate from each well was incubated with 2 μL of Eu3+-cryptate (donor) labeled anti-phospho-ERK1/2 and 2 μL of D2 (acceptor) labeled anti-phospho-ERK1/2 antibodies (Cisbio) overnight in dark at room temperature. When donor and acceptor are in close proximity, excitation of the donor with laser triggers a Fluorescence Resonance Energy Transfer (FRET) towards the acceptor, which in turn fluoresces at 655 nm wavelength. FRET signals were measured using a PHERAstar FSX reader (BMG Labtech). IC50 determination was performed by fitting the curve of percent inhibition versus the log of the inhibitor concentration using Dotmatics.

Compound | IC50
C#Cc1c(F)ccc2cc(O)cc(-c3nc4c5c(nc(OC[C@@]67CCCN6C[C@H](F)C7)nc5c3F)N3CCCC[C@H]3CO4)c12 [Example 16, 5-ethynyl-6-fluoro-4-((S)-1-fluoro-11-(((2R,7aS)-2-fluorotetrahydro-1H-pyrrolizin-7a(5H)-yl)methoxy)-5,5a,6,7,8,9-hexahydro-4-oxa-3,9a,10,12-tetraazabenzo[4,5]cyclohepta[1,2,3-d]naphthalen-2-yl)naphthalen-2-ol] | 5.9 nM
N#Cc1c(N)sc2c(F)ccc(-c3c(Cl)c4c5c(nc(OC[C@@]67CCCN6C[C@H](F)C7)nc5c3F)N3CCC[C@@H]3CCO4)c12 [Example 7, 2-amino-4-((13aR)-10-chloro-8-fluoro-6-(((2R,7aS)-2-fluorotetrahydro-1H-pyrrolizin-7a (5H)-yl)methoxy)-1,2,3,12,13,13a-hexahydropyrrolo[1′,2′:5,6][1,5]oxazocino[4,3,2-de]quinazolin-9-yl)-7-fluorobenzo[b]thiophene-3-carbonitrile] | 49 nM
C[C@@H]1Oc2nc(-c3cc(N)cc(Cl)c3C(F)(F)F)c(F)c3nc(OC[C@@]45CCCN4C[C@H](F)C5)nc(c23)N2CCCC[C@@H]12 [Example 33, 3-chloro-5-((5S,5aS)-1-fluoro-11-(((2R,7aS)-2-fluorotetrahydro-1H-pyrrolizin-7a(5H)-yl)methoxy)-5-methyl-5,5a,6,7,8,9-hexahydro-4-oxa-3,9a,10,12-tetraazabenzo[4,5]cyclohepta[1,2,3-de]naphthalen-2-yl)-4-(trifluoromethyl)aniline] | 43 nM
C#Cc1c(F)ccc2cc(O)cc(-c3nc4c5c(nc(OC[C@@]67CCCN6C[C@H](F)C7)nc5c3F)N3CCCCCC3CO4)c12 (stereo partly drawn) [Example 26, 5-ethynyl-6-fluoro-4-(1-fluoro-12-(((2R,7aS)-2-fluorotetrahydro-1H-pyrrolizin-7a(5H)-yl)methoxy)-5a,6,7,8,9,10-hexahydro-5H-4-oxa-3,10a,11,13-tetraazanaphtho[1,8-ab]heptalen-2-yl)naphthalen-2-ol] | 9.3 nM
N#Cc1c(N)sc2c(F)ccc(-c3cc4c5c(nc(OC[C@@]67CCCN6C[C@H](F)C7)nc5c3F)N3CCC[C@H]3CO4)c12 [Example 1, 2-amino-7-fluoro-4-((S)-4-fluoro-2-(((2R,7aS)-2-fluorotetrahydro-1H-pyrrolizin-7a(5H)-yl)methoxy)-8a,9,10,11-tetrahydro-8H-pyrrolo[2′,1′:3,4][1,4]oxazepino[5,6,7-de]quinazolin-5-yl)benzo[b]thiophene-3-carbonitrile] | 290 nM
C#Cc1c(F)ccc2cc(O)cc(-c3cc4c5c(nc(OC[C@@]67CCCN6C[C@H](F)C7)nc5c3F)N3CC(F)(F)C[C@H]3CO4)c12 [Example 4, 5-ethynyl-6-fluoro-4-((S)-2,2,8-trifluoro-6-(((2R,7aS)-2-fluorotetrahydro-1H-pyrrolizin-7a(5H)-yl)methoxy)-2,3,12,12a-tetrahydro-1H-pyrrolo[2′,1′:3,4][1,4]oxazepino[5,6,7-de]quinazolin-9-yl)naphthalen-2-ol] | 658 nM
N#Cc1c(N)sc2c(F)ccc(-c3c(Cl)c4c5c(nc(OC[C@@]67CCCN6C[C@H](F)C7)nc5c3F)N3CC[C@@H](O)C[C@H]3CO4)c12 [Example 31, 2-Amino-4-((8aS,10R)-6-chloro-4-fluoro-2-(((2R,7aS)-2-fluorotetrahydro-1H-pyrrolizin-7a(5H)-yl)methoxy)-10-hydroxy-8,8a,9,10,11,12-hexahydropyrido[2′,1′:3,4][1,4]oxazepino[5,6,7-de]quinazolin-5-yl)-7-fluorobenzo[b]thiophene-3-carbonitrile] | 56 nM
Nc1cc(Cl)c(C(F)(F)F)c(-c2nc3c4c(nc(OC[C@@]56CCCN5C[C@H](F)C6)nc4c2F)N2CC[C@@H]2CCO3)c1 [Example 23, 3-chloro-5-((R)-6-fluoro-4-(((2R,7aS)-2-fluorotetrahydro-1H-pyrrolizin-7a(5H)-yl)methoxy)-1,10,11,11a-tetrahydro-2H-9-oxa-2a,3,5,8-tetraazacyclobuta[4,5]cycloocta[1,2,3-de]naphthalen-7-yl)-4-(trifluoromethyl)aniline] | 73 nM
Nc1cc(Cl)c(C(F)(F)F)c(-c2nc3c4c(nc(OC[C@@]56CCCN5C[C@H](F)C6)nc4c2F)N2CC[C@H]2CCO3)c1 [Example 22, 3-chloro-5-((S)-6-fluoro-4-(((2R,7aS)-2-fluorotetrahydro-1H-pyrrolizin-7a(5H)-yl)methoxy)-1,10,11,11a-tetrahydro-2H-9-oxa-2a,3,5,8-tetraazacyclobuta[4,5]cycloocta[1,2,3-de]naphthalen-7-yl)-4-(trifluoromethyl)aniline] | 466 nM
Nc1cc(Cl)c(C(F)(F)F)c(-c2nc3c4c(nc(OC[C@@]56CCCN5C[C@H](F)C6)nc4c2F)N2CCC[C@H]2CO3)c1 [Example 9, 3-chloro-5-((S)-7-fluoro-5-(((2R,7aS)-2-fluorotetrahydro-1H-pyrrolizin-7a(5H)-yl)methoxy)-2,3,11,11a-tetrahydro-1H-10-oxa-3a,4,6,9-tetraazanaphtho[1,8-e]azulen-8-yl)-4-(trifluoromethyl)aniline] | 890 nM
Nc1cc(Cl)c(C(F)(F)F)c(-c2nc3c4c(nc(OC[C@@]56CCCN5C[C@H](F)C6)nc4c2F)N2CCCCCC2CO3)c1 (stereo partly drawn) [Example 25, 3-chloro-5-(1-fluoro-12-(((2R,7aS)-2-fluorotetrahydro-1H-pyrrolizin-7a(5H)-yl)methoxy)-5a,6,7,8,9,10-hexahydro-5H-4-oxa-3,10a,11,13-tetraazanaphtho[1,8-ab]heptalen-2-yl)-4-(trifluoromethyl)aniline] | 53 nM
C#Cc1c(F)ccc2cc(O)cc(-c3cc4c5c(nc(OC[C@@]67CCCN6C[C@H](F)C7)nc5c3F)N3CCCCC3CCO4)c12 (stereo partly drawn) [Example 6, 5-ethynyl-6-fluoro-4-(1-fluoro-13-(((2R,7aS)-2-fluorotetrahydro-1H-pyrrolizin-7a(5H)-yl)methoxy)-6,6a,7,8,9,10-hexahydro-5H-pyrido[1′,2′:5,6][1,5]oxazocino[4,3,2-de]quinazolin-2-yl)naphthalen-2-ol] | 271 nM

test system: pERK1/2(THR202/TYR204) level in AsPC-1 cell line (KRAS G12D); assay: KRAS G12D pERK assay (HTRF) in AsPC-1 cell line; format: cell-based; conditions: Homo sapiens, ASPC1; AsPC-1 cells, 2 h compound treatment
Procedure: as §1, with “AsPC-1” for “SW620”, “RPMI-1640” for “RPMI 1640”, “30000” for “40000”, “h” for “hrs”, “IC50 determination was performed by fitting the curve of percent inhibition versus the log of the inhibitor concentration using Dotmatics.” left out

Compound | IC50
C#Cc1c(F)ccc2cc(O)cc(-c3nc4c5c(nc(OC[C@@]67CCCN6C[C@H](F)C7)nc5c3F)N3CCCC[C@H]3CO4)c12 [Example 16, 5-ethynyl-6-fluoro-4-((S)-1-fluoro-11-(((2R,7aS)-2-fluorotetrahydro-1H-pyrrolizin-7a(5H)-yl)methoxy)-5,5a,6,7,8,9-hexahydro-4-oxa-3,9a,10,12-tetraazabenzo[4,5]cyclohepta[1,2,3-d]naphthalen-2-yl)naphthalen-2-ol] | 6.3 nM
